Results taken from patent US20130065868A1, “ANXIOYTIC MARCGRAVIACEAE COMPOSITIONS CONTAINING BETULINIC ACID, BETULINIC ACID DERIVATIVES, AND METHODS” (UNIVERSITY OF OTTAWA, priority 2002, published 2013).

Key:
GABA transporter = assay: MDS Panlabs screen: GABA transporter; assay type: binding; conditions: Gabaergic
Procedure: (§1) Tests were conducted by MDS Panlabs to determine whether any of the classical neurotransmitter systems or the peptidergic systems thought to play a role in anxiety are affected by betulinic acid.

interleukin IL-1α = assay: MDS Panlabs screen: interleukin IL-1α; assay type: binding; conditions: Peptides
Procedure: as §1

TNF non-selective = assay: MDS Panlabs screen: TNF non-selective; assay type: binding; conditions: Peptides
Procedure: as §1

MAO B = MAO B (Homo sapiens, UniProt P27338); assay: MDS Panlabs screen: MAO B; assay type: biochemical; conditions: Catecholamines
Chain of MAO B (P27338 whole entry): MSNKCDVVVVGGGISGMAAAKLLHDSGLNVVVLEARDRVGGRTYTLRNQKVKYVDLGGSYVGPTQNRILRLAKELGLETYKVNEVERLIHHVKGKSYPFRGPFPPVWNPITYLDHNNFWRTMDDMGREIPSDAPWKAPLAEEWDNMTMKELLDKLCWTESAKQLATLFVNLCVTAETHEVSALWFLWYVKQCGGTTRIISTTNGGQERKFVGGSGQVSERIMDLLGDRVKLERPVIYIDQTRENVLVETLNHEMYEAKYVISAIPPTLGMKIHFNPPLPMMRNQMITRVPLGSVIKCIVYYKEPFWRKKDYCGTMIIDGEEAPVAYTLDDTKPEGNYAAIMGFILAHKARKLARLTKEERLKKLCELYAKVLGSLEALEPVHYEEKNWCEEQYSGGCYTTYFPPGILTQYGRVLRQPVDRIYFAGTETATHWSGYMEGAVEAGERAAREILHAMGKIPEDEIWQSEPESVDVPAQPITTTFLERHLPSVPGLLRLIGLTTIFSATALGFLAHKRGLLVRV
Procedure: as §1

Sprague-Dawley rats = assay: Elevated plus-maze (EPM) test in rats; assay type: in vivo, rat; conditions: 1 mg/kg in peanut oil orally (gavage), 45-60 min after treatment, vs peanut oil (FIG. 3)
Procedure: The majority of tests described in the following examples were conducted on adult; male Sprague-Dawley rats (typically weighing ˜300-450 gm) were obtained from Charles River Canada, St. Constant, Quebec. They were individually housed in standard clear Plexiglas cages (24×30×18 cm) and maintained on a 12 hr light/dark cycle (7:00 A.M.-7:00 P.M. light phase) in a temperature and humidity controlled room. Unless indicated otherwise, animals had free access to water and maintained on a restricted diet of 5 pellets a day of Purina Lab Chow. All experimental procedures complied with the guidelines of the Canadian Council on Animal Care and were approved by the Research Ethics Committee at the University of Ottawa. […]
The EPM constitutes of a plus-shaped maze with two enclosed arms (or alleys; 50×10×40 cm) and two open arms (or planks; 50×10 cm), with a 10×10 cm central zone. […] To avoid distractions, the EPM was surrounded by black curtain and the subjects were monitored remotely, using a closed circuit camera mounted above the set-up.
The rats were randomly assigned to each of the drug conditions. […] Behaviours scored included time spent in the open arms of the maze, time spent in the closed arms of the maze, number of entries into the open-arms and number of entries into the closed arm of the maze. […]

C=C(C)[C@@H]1CC[C@]2(C(=O)O)CC[C@]3(C)C(CC[C@@H]4[C@@]5(C)CC[C@H](O)C(C)(C)[C@@H]5CC[C@]43C)[C@@H]12 (some centres unmarked) [betulinic acid, Betulinic acid]
affected by betulinic acid (GABA transporter): none of the following neurotransmitters or proteins were affected
affected by betulinic acid (interleukin IL-1α): none of the following neurotransmitters or proteins were affected
affected by betulinic acid (TNF non-selective): none of the following neurotransmitters or proteins were affected
affected by betulinic acid (MAO B): none of the following neurotransmitters or proteins were affected
time spent on the open arms of the plus-maze (Sprague-Dawley rats): spent significantly more time on the open arms of the plus-maze
